# Literature values in PubChem BioAssay AID1259409 (Chemical Carcinogenesis Research Information System (CCRIS), 2018).
# System: rodent chemically induced tumor inhibition, incidence and multiplicity
# Assay: CCRIS tumor inhibitor studies
structure (smiles),measurement,setting,value
CCCCCCCC/C=C\CCCCCCCC(=O)O,"tumour outcome (control, treated, inhibition, significance)","Carcinogen: 1,2-DIMETHYLHYDRAZINE, 540-73-8, Dose [Inhibitor]: 0, 1 MG/D FOR 25 WK BEGINNING 3 WK PRIOR TO CARCINOGEN (STUDY DURATION: 25 WK), Route [Inhibitor]: ORAL, Species: RAT, Strain/Sex: CD-1/MALE, Target Tissue: Type of Lesion: COLON: TUMOR, Dose [Carcinogen]: 15 MG/KG 1/WK FOR 16 WK","17/22 (77%), 19/22 (86%), -12%, not significant"
same,"tumour outcome (control, treated, inhibition, significance)","Carcinogen: BENZO[A]PYRENE, 50-32-8, Dose [Inhibitor]: 25 MG IN 0.1 ML ACETONE 3/WK ADMINISTERED SIMULTANEOUSLY WITH CARCINOGEN FOR DURATION OF STUDY (STUDY DURATION: 440 D), Route [Inhibitor]: DERMAL, Species: MOUSE, Strain/Sex: ICR/FEMALE, Target Tissue: Type of Lesion: SKIN: PAPILLOMA, Dose [Carcinogen]: 5 UG IN 0.1 ML ACETONE 3/WK FOR DURATION OF STUDY, Promoter: NONE USED","16/50 (32%), 0/50 (0%), 100%, not calculated"
same,"tumour outcome (control, treated, inhibition, significance)","Carcinogen: BENZO[A]PYRENE, 50-32-8, Dose [Inhibitor]: 25 MG IN 0.1 ML ACETONE 3/WK ADMINISTERED SIMULTANEOUSLY WITH CARCINOGEN FOR DURATION OF STUDY (STUDY DURATION: 440 D), Route [Inhibitor]: DERMAL, Species: MOUSE, Strain/Sex: ICR/FEMALE, Target Tissue: Type of Lesion: SKIN: SQUAMOUS CARCINOMA, Dose [Carcinogen]: 5 UG IN 0.1 ML ACETONE 3/WK FOR DURATION OF STUDY, Promoter: NONE USED","12/50 (24%), 0/50 (0%), 100%, not calculated"
CCCCC(C)N=C=S (configuration not stated),"tumour outcome (control, treated, inhibition, significance)","Carcinogen: 4-(METHYLNITROSAMINO)-1-(3-PYRIDYL)-1-BUTANONE, 64091-91-4, Dose [Inhibitor]: 0, 1 UMOL ONCE 2 HR PRIOR TO CARCINOGEN DOSE (STUDY DURATION: 16 WK), Route [Inhibitor]: GAVAGE, Species: MOUSE, Strain/Sex: STRAIN-A/FEMALE, Target Tissue: Type of Lesion: LUNG: ADENOMA, Dose [Carcinogen]: 10 UMOL IN 0.1 ML SALINE ONCE, Promoter: NONE USED","100%, 70%, 30%, p<0.05"
same,"tumour outcome (control, treated, inhibition, significance)","Carcinogen: 4-(METHYLNITROSAMINO)-1-(3-PYRIDYL)-1-BUTANONE, 64091-91-4, Dose [Inhibitor]: 0, 5 UMOL ONCE 2 HR PRIOR TO CARCINOGEN DOSE (STUDY DURATION: 16 WK), Route [Inhibitor]: GAVAGE, Species: MOUSE, Strain/Sex: STRAIN-A/FEMALE, Target Tissue: Type of Lesion: LUNG: ADENOMA, Dose [Carcinogen]: 10 UMOL IN 0.1 ML SALINE ONCE, Promoter: NONE USED","100%, 30%, 70%, p<0.05"
O=C1OCc2ccccc21,"tumour outcome (control, treated, inhibition, significance)","Carcinogen: BENZO[A]PYRENE, 50-32-8, Dose [Inhibitor]: 0.034 MMOL/G IN DIET BEGINNING 1 WK PRIOR TO FIRST CARCINOGEN DOSE AND CONTINUING FOR 3 D POST LAST CARCINOGEN DOSE (STU, Route [Inhibitor]: ORAL, Species: MOUSE, Strain/Sex: ICR/FEMALE, Target Tissue: Type of Lesion: FORESTOMACH: TUMOR, Dose [Carcinogen]: 1 MG IN 0.2 ML CORN OIL 2/WK FOR 4 WK, Promoter: NONE USED","95%, 95%, 0%, not significant"
COc1cc2ccc(=O)oc2cc1O,"tumour outcome (control, treated, inhibition, significance)","Carcinogen: 7,12-DIMETHYLBENZ[A]ANTHRACENE, 57-97-6, Dose [Inhibitor]: 0.068 MMOL/G IN DIET FOR 8 D BEGINNING 1 WK PRIOR TO CARCINOGEN DOSE (STUDY DURATION: 23 WK), Route [Inhibitor]: ORAL, Species: RAT, Strain/Sex: SPRAGUE-DAWLEY/FEMALE, Target Tissue: Type of Lesion: MAMMARY GLAND: TUMOR, Dose [Carcinogen]: 12 MG IN 1.0 ML OLIVE OIL ONCE, Promoter: NONE USED","100%, 78%, 22%, not significant"
same,"tumour outcome (control, treated, inhibition, significance)","Carcinogen: BENZO[A]PYRENE, 50-32-8, Dose [Inhibitor]: 0.034 MMOL/G IN DIET BEGINNING 1 WK PRIOR TO FIRST CARCINOGEN DOSE AND CONTINUING FOR 3 D POST LAST CARCINOGEN DOSE FOR, Route [Inhibitor]: ORAL, Species: MOUSE, Strain/Sex: ICR/HA/FEMALE, Target Tissue: Type of Lesion: FORESTOMACH: TUMOR, Dose [Carcinogen]: 1 MG IN 0.2 ML CORN OIL 2/WK FOR 4 WK, Promoter: NONE USED","100%, 100%, 0%, not significant"
CC(C)=CCC/C(C)=C/C=O,outcome,"Carcinogen: DIMETHYLBENZANTHRACENE, 57-97-6, Dose [Inhibitor]: 0, 1 UMOL IN ACETONE 2/WK ADMINISTERED PRIOR TO EACH PROMOTER DOSE FOR 20 WK (STUDY DURATION: 21 WK), Route [Inhibitor]: DERMAL, Species: MOUSE, Strain/Sex: SKH/HR1/FEMALE, Target Tissue: Type of Lesion: SKIN: TUMOR, Dose [Carcinogen]: 0.1 UMOL IN 0.1 ML ACETONE ONCE, Promoter: TPA, 16561-29-8","88%, 72%, 18%, p 0.05 at 10 wk of promotion: 96%, 96%, 0%, not calculated at 15"
CC(C)=C1C=C(C(C)C)C(O)CC1 (configuration not stated),"tumour outcome (control, treated, inhibition, significance)","Carcinogen: 7,12-DIMETHYLBENZ[A]ANTHRACENE, 57-97-6, Dose [Inhibitor]: 0, 12 NMOL PER REPEATED APPLICATION FOR 20 WK (STUDY DURATION: 20 WK), Route [Inhibitor]: DERMAL, Species: MOUSE, Strain/Sex: CD-1/FEMALE, Target Tissue: Type of Lesion: SKIN: TUMOR, Dose [Carcinogen]: 100 UG ONCE, Promoter: OKADAIC ACID, 78111-17-8","87%, 33%, 62%, not calculated"
C[n+]1ccc(-c2cc[n+](C)cc2)cc1,"tumour outcome (control, treated, inhibition, significance)","Carcinogen: 7,12-DIMETHYLBENZ[A]ANTHRACENE, 57-97-6, Dose [Inhibitor]: 0, 26 MG/KG BW 1/WK FOR 4 WK BEGINNING POST CARCINOGEN DOSE (STUDY DURATION: 4 MO), Route [Inhibitor]: SUBCUTANEOUS, Species: MOUSE, Strain/Sex: ICR/FEMALE, Target Tissue: Type of Lesion: LUNG: TUMOR, Dose [Carcinogen]: 1 MG/KG BW ONCE ADMINISTERED TO NEONATAL MICE, Promoter: NONE USED","4/10 (40%), 2/9 (22%), 45%, not calculated"
same,"tumour outcome (control, treated, inhibition, significance)","Carcinogen: 7,12-DIMETHYLBENZ[A]ANTHRACENE, 57-97-6, Dose [Inhibitor]: 0, 26 MG/KG BW 1/WK FOR 4 WK BEGINNING POST CARCINOGEN DOSE (STUDY DURATION: 4 MO), Route [Inhibitor]: SUBCUTANEOUS, Species: MOUSE, Strain/Sex: ICR/FEMALE, Target Tissue: Type of Lesion: LUNG: TUMOR, Dose [Carcinogen]: 10 MG/KG BW ONCE ADMINISTERED TO NEONATAL MICE, Promoter: NONE USED","9/11 (82%), 4/7 (57%), 30%, not calculated"
same,"tumour outcome (control, treated, inhibition, significance)","Carcinogen: 7,12-DIMETHYLBENZ[A]ANTHRACENE, 57-97-6, Dose [Inhibitor]: 0, 26 MG/KG BW 1/WK FOR 4 WK BEGINNING POST CARCINOGEN DOSE (STUDY DURATION: 4 MO), Route [Inhibitor]: SUBCUTANEOUS, Species: MOUSE, Strain/Sex: ICR/MALE, Target Tissue: Type of Lesion: LUNG: TUMOR, Dose [Carcinogen]: 1 MG/KG BW ONCE ADMINISTERED TO NEONATAL MICE, Promoter: NONE USED","2/10 (20%), 0/9 (0%), 100%, not calculated"
same,"tumour outcome (control, treated, inhibition, significance)","Carcinogen: 7,12-DIMETHYLBENZ[A]ANTHRACENE, 57-97-6, Dose [Inhibitor]: 0, 26 MG/KG BW 1/WK FOR 4 WK BEGINNING POST CARCINOGEN DOSE (STUDY DURATION: 4 MO), Route [Inhibitor]: SUBCUTANEOUS, Species: MOUSE, Strain/Sex: ICR/MALE, Target Tissue: Type of Lesion: LUNG: TUMOR, Dose [Carcinogen]: 10 MG/KG BW ONCE ADMINISTERED TO NEONATAL MICE, Promoter: NONE USED","9/11 (82%), 4/9 (44%), 46%, not calculated"
same,"tumour outcome (control, treated, inhibition, significance)","Carcinogen: 7,12-DIMETHYLBENZ[A]ANTHRACENE, 57-97-6, Dose [Inhibitor]: 0, 26 MG/KG BW 1/WK FOR 4 WK BEGINNING POST CARCINOGEN DOSE (STUDY DURATION: 6 MO), Route [Inhibitor]: SUBCUTANEOUS, Species: MOUSE, Strain/Sex: ICR/MALE, Target Tissue: Type of Lesion: LIVER: TUMOR, Dose [Carcinogen]: 10 MG/KG BW ONCE ADMINISTERED TO NEONATAL MICE, Promoter: NONE USED","4/11 (36%), 2/17 (12%), 67%, not calculated"
same,"tumour outcome (control, treated, inhibition, significance)","Carcinogen: 7,12-DIMETHYLBENZ[A]ANTHRACENE, 57-97-6, Dose [Inhibitor]: 0, 26 MG/KG BW 1/WK FOR 4 WK BEGINNING POST CARCINOGEN DOSE (STUDY DURATION: 6 MO), Route [Inhibitor]: SUBCUTANEOUS, Species: MOUSE, Strain/Sex: ICR/MALE, Target Tissue: Type of Lesion: LUNG: TUMOR, Dose [Carcinogen]: 1 MG/KG BW ONCE ADMINISTERED TO NEONATAL MICE, Promoter: NONE USED","3/10 (30%), 1/9 (11%), 63%, not calculated"
same,"tumour outcome (control, treated, inhibition, significance)","Carcinogen: 7,12-DIMETHYLBENZ[A]ANTHRACENE, 57-97-6, Dose [Inhibitor]: 0, 26 MG/KG BW 1/WK FOR 4 WK BEGINNING POST CARCINOGEN DOSE (STUDY DURATION: 6 MO), Route [Inhibitor]: SUBCUTANEOUS, Species: MOUSE, Strain/Sex: ICR/MALE, Target Tissue: Type of Lesion: LUNG: TUMOR, Dose [Carcinogen]: 10 MG/KG BW ONCE ADMINISTERED TO NEONATAL MICE, Promoter: NONE USED","9/11 (82%), 13/17 (76%), 7%, not calculated"
